From PMC3022525, “Analysis of LhcSR3, a Protein Essential for Feedback De-Excitation in the Green Alga Chlamydomonas reinhardtii” (PLoS Biology, 2011)

Tests used:
[1] = target: T1, LhcSR3 (Chlamydomonas reinhardtii, UniProt P0DO19); assay: […]-DCCD labelling, SDS-PAGE autoradiography, densitometry; type: binding; conditions: covalent; labelled compound; protonatable residues
T1 construct: gene LHCSR3.1; precursor 259 residues
T1 sequence (P0DO19 46-259 limits assumed): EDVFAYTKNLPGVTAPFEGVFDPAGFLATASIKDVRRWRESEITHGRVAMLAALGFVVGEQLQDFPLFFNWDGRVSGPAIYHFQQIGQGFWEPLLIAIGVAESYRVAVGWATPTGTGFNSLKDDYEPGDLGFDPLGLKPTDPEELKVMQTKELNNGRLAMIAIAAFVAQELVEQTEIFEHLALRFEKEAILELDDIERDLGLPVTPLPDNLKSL

[2] = target: T1, LhcSR3; assay: in vitro reconstitution, HPLC pigment analysis, Soret spectral deconvolution; type: binding
[3] = refolded with Chl a, Chl b, lutein and violaxanthin (LV complex), sites L1/L2 proposed

Row | SMILES | in vitro reconstitution, HPLC pigment analysis, Soret spectral deconvolution [2, 3] | further results
1 | C(=NC1CCCCC1)=NC1CCCCC1 [DCCD] | – | 14C-DCCD labelling, SDS-PAGE autoradiography, densitometry [1]: LhcSR3 revealed very efficient binding of DCCD, higher than plant CP29
2 | CC1=C[C@H](O)CC(C)(C)[C@H]1/C=C/C(C)=C/C=C/C(C)=C/C=C/C=C(C)/C=C/C=C(C)/C=C/C1=C(C)C[C@@H](O)CC1(C)C [lutein] | lutein and violaxanthin bound to the apoprotein | –
3 | CC(/C=C/C=C(C)/C=C/[C@@]12O[C@]1(C)C[C@@H](O)CC2(C)C)=C\C=C\C=C(C)\C=C\C=C(C)\C=C\[C@@]12O[C@]1(C)C[C@@H](O)CC2(C)C [violaxanthin] | lutein and violaxanthin bound to the apoprotein | –
4 | CC1=C(/C=C/C(C)=C/C=C/C(C)=C/C=C/C=C(C)/C=C/C=C(C)/C=C/C2=C(C)C[C@@H](O)CC2(C)C)C(C)(C)C[C@H](O)C1 [zeaxanthin] | – | in vitro reconstitution, HPLC pigment analysis, Soret spectral deconvolution ([2]; refolded with zeaxanthin present besides lutein and violaxanthin (LVZ complex), several sites): implying that Zea entered the three sites, although to different extents
